Assays:
[1] = Sensory evaluation of aqueous solution VI containing 1,5-octadien-3-ol 10 ppb: off-flavor intensity and masking component intensity; settings: aqueous solution VI, average panel score
Method: (§1) In ion-exchanged water, each degradation component was added to achieve the concentrations listed in Table 1, and aqueous solutions I to VI containing these degradation components were prepared.
(§2) For the aforementioned aqueous solutions containing degradation components, nootkatone was added at the concentrations listed in Table 2 to confirm the intensity of the off-flavor (masking effect) in each sample and the intensity of the masking component itself (the impact on the flavor of the food and/or beverage itself).
(§3) The test was conducted as follows. Eight experienced panelists were selected to conduct a sensory evaluation. The intensity of the off-flavor of the aqueous solution containing the degradation components derived from unsaturated fatty acids, without added masking components, was set as “Evaluation: 4.” The ion-exchanged water free of any degradation components was set as “Evaluation: 0.” The intensity of the off-flavor (masking effect) of each sample was then relatively evaluated according to the following evaluation criteria.
(§4) • Off-flavor is strongly sensed: 4 points • Off-flavor is sensed: 3 points • Off-flavor is slightly sensed: 2 points • Off-flavor is barely sensed: 1 point • Off-flavor is not sensed at all: 0 points
(§5) Also, the intensity of the masking components (impact on the flavor of the food and/or beverage itself) was absolutely evaluated according to the following evaluation criteria.
(§6) • Masking component is strongly sensed: 4 points • Masking component is sensed: 3 points • Masking component is slightly sensed: 2 points • Masking component is barely sensed: 1 point • Masking component is not sensed at all: 0 points

[2] = Sensory evaluation of aqueous solution V containing 1-octen-3-ol 10 ppb: off-flavor intensity and masking component intensity; settings: average panel score
Method: as §1, §2, §3, §4, §5, §6

[3] = Sensory evaluation of aqueous solution III containing 1-octen-3-one 1 ppb: off-flavor intensity and masking component intensity; settings: average panel score
Method: as §1, §2, §3, §4, §5, §6

[4] = Sensory evaluation of aqueous solution IV containing 1,5-octadien-3-one 100 ppt: off-flavor intensity and masking component intensity; settings: aqueous solution IV, average panel score
Method: as §1, §2, §3, §4, §5, §6

[5] = Sensory evaluation of aqueous solution II containing (E)-2-octenal 10 ppb: off-flavor intensity and masking component intensity; settings: average panel score
Method: as §1, §2, §3, §4, §5, §6

[6] = Sensory evaluation of aqueous solution I containing (E)-2-nonenal 1 ppb: off-flavor intensity and masking component intensity; settings: average panel score
Method: as §1, §2, §3, §4, §5, §6

[7] = Overall conclusion of the sensory evaluation across aqueous solutions I to VI
Method: as §1, §2, §3, §4, §5, §6

CC(=O)/C(C)=C/C1C(C)=CCCC1(C)C (centres unmarked) [γ-methyl ionone]
Masking Component Intensity ([1]; 0.01 ppt added): 0.4
Off-Flavor Intensity ([1]; 0.01 ppt added): 3.1
Masking Component Intensity ([1]; 0.1 ppt added): 0.9
Off-Flavor Intensity ([1]; 0.1 ppt added): 3.1
Masking Component Intensity ([1]; 1 ppb added): 1.9
Off-Flavor Intensity ([1]; 1 ppb added): 1.9
Masking Component Intensity ([1]; 1 ppm added): 4.0
Off-Flavor Intensity ([1]; 1 ppm added): 0.5
Masking Component Intensity ([1]; 1 ppt added): 1.0
Off-Flavor Intensity ([1]; 1 ppt added): 2.8
Masking Component Intensity ([1]; 10 ppb added): 2.8
Off-Flavor Intensity ([1]; 10 ppb added): 1.3
Masking Component Intensity ([1]; 10 ppt added): 1.3
Off-Flavor Intensity ([1]; 10 ppt added): 2.4
Masking Component Intensity ([1]; 100 ppb added): 3.4
Off-Flavor Intensity ([1]; 100 ppb added): 0.9
Masking Component Intensity ([1]; 100 ppt added): 1.6
Off-Flavor Intensity ([1]; 100 ppt added): 2.1
Masking Component Intensity ([2]; 0.01 ppt added): 0.0
Off-Flavor Intensity ([2]; 0.01 ppt added): 3.5
Masking Component Intensity ([2]; 0.1 ppt added): 0.4
Off-Flavor Intensity ([2]; 0.1 ppt added): 3.3
Masking Component Intensity ([2]; 1 ppb added): 2.3
Off-Flavor Intensity ([2]; 1 ppb added): 1.9
Masking Component Intensity ([2]; 1 ppm added): 4.0
Off-Flavor Intensity ([2]; 1 ppm added): 0.1
Masking Component Intensity ([2]; 1 ppt added): 0.4
Off-Flavor Intensity ([2]; 1 ppt added): 3.3
Masking Component Intensity ([2]; 10 ppb added): 2.9
Off-Flavor Intensity ([2]; 10 ppb added): 1.5
Masking Component Intensity ([2]; 10 ppt added): 1.0
Off-Flavor Intensity ([2]; 10 ppt added): 2.6
Masking Component Intensity ([2]; 100 ppb added): 3.8
Off-Flavor Intensity ([2]; 100 ppb added): 0.8
Masking Component Intensity ([2]; 100 ppt added): 1.4
Off-Flavor Intensity ([2]; 100 ppt added): 2.1
Masking Component Intensity ([3]; 0.01 ppt added): 0.3
Off-Flavor Intensity ([3]; 0.01 ppt added): 3.4
Masking Component Intensity ([3]; 0.1 ppt added): 0.3
Off-Flavor Intensity ([3]; 0.1 ppt added): 3.3
Masking Component Intensity ([3]; 1 ppb added): 1.6
Off-Flavor Intensity ([3]; 1 ppb added): 2.0
Masking Component Intensity ([3]; 1 ppm added): 4.0
Off-Flavor Intensity ([3]; 1 ppm added): 0.3
Masking Component Intensity ([3]; 1 ppt added): 0.4
Off-Flavor Intensity ([3]; 1 ppt added): 3.1
Masking Component Intensity ([3]; 10 ppb added): 2.5
Off-Flavor Intensity ([3]; 10 ppb added): 1.5
Masking Component Intensity ([3]; 10 ppt added): 0.6
Off-Flavor Intensity ([3]; 10 ppt added): 2.8
Masking Component Intensity ([3]; 100 ppb added): 3.5
Off-Flavor Intensity ([3]; 100 ppb added): 1.1
Masking Component Intensity ([3]; 100 ppt added): 0.9
Off-Flavor Intensity ([3]; 100 ppt added): 2.4
Masking Component Intensity ([4]; 0.01 ppt added): 0.0
Off-Flavor Intensity ([4]; 0.01 ppt added): 3.8
Masking Component Intensity ([4]; 0.1 ppt added): 0.0
Off-Flavor Intensity ([4]; 0.1 ppt added): 3.5
Masking Component Intensity ([4]; 1 ppb added): 1.5
Off-Flavor Intensity ([4]; 1 ppb added): 2.1
Masking Component Intensity ([4]; 1 ppm added): 4.0
Off-Flavor Intensity ([4]; 1 ppm added): 0.6
Masking Component Intensity ([4]; 1 ppt added): 0.3
Off-Flavor Intensity ([4]; 1 ppt added): 3.4
Masking Component Intensity ([4]; 10 ppb added): 2.3
Off-Flavor Intensity ([4]; 10 ppb added): 1.6
Masking Component Intensity ([4]; 10 ppt added): 0.5
Off-Flavor Intensity ([4]; 10 ppt added): 3.3
Masking Component Intensity ([4]; 100 ppb added): 3.4
Off-Flavor Intensity ([4]; 100 ppb added): 1.0
Masking Component Intensity ([4]; 100 ppt added): 0.6
Off-Flavor Intensity ([4]; 100 ppt added): 2.8
Masking Component Intensity ([5]; 0.01 ppt added): 0.4
Off-Flavor Intensity ([5]; 0.01 ppt added): 3.3
Masking Component Intensity ([5]; 0.1 ppt added): 0.5
Off-Flavor Intensity ([5]; 0.1 ppt added): 3.1
Masking Component Intensity ([5]; 1 ppb added): 2.1
Off-Flavor Intensity ([5]; 1 ppb added): 1.5
Masking Component Intensity ([5]; 1 ppm added): 4.0
Off-Flavor Intensity ([5]; 1 ppm added): 0.3
Masking Component Intensity ([5]; 1 ppt added): 0.8
Off-Flavor Intensity ([5]; 1 ppt added): 2.8
Masking Component Intensity ([5]; 10 ppb added): 2.8
Off-Flavor Intensity ([5]; 10 ppb added): 1.1
Masking Component Intensity ([5]; 10 ppt added): 1.3
Off-Flavor Intensity ([5]; 10 ppt added): 2.5
Masking Component Intensity ([5]; 100 ppb added): 3.8
Off-Flavor Intensity ([5]; 100 ppb added): 0.6
Masking Component Intensity ([5]; 100 ppt added): 1.5
Off-Flavor Intensity ([5]; 100 ppt added): 2.0
Masking Component Intensity ([6]; 0.01 ppt added): 0.3
Off-Flavor Intensity ([6]; 0.01 ppt added): 3.8
Masking Component Intensity ([6]; 0.1 ppt added): 0.6
Off-Flavor Intensity ([6]; 0.1 ppt added): 3.4
Masking Component Intensity ([6]; 1 ppb added): 2.0
Off-Flavor Intensity ([6]; 1 ppb added): 2.1
Masking Component Intensity ([6]; 1 ppm added): 4.0
Off-Flavor Intensity ([6]; 1 ppm added): 0.3
Masking Component Intensity ([6]; 1 ppt added): 0.8
Off-Flavor Intensity ([6]; 1 ppt added): 3.1
Masking Component Intensity ([6]; 10 ppb added): 2.5
Off-Flavor Intensity ([6]; 10 ppb added): 1.6
Masking Component Intensity ([6]; 10 ppt added): 1.1
Off-Flavor Intensity ([6]; 10 ppt added): 2.5
Masking Component Intensity ([6]; 100 ppb added): 3.5
Off-Flavor Intensity ([6]; 100 ppb added): 1.0
Masking Component Intensity ([6]; 100 ppt added): 1.5
Off-Flavor Intensity ([6]; 100 ppt added): 2.4
concentration that masks the off-flavor and does not affect the flavor of the food and/or beverage itself, lower limit [7]: ≥ 1 ppt
concentration that masks the off-flavor and does not affect the flavor of the food and/or beverage itself, upper limit [7]: ≤ 10 ppb
